Measured values taken from patent US10040815B2, “3-substituted 5-amino-6H-thiazolo[4,5-d]pyrimidine-2,7-dione compounds for the treatment and prophylaxis of virus infection” (Hoffmann-La Roche Inc., priority 2014, dated 2018).

Assays:
[1] = target: murine TLR7 (Mus musculus (Mouse), UniProt P58681); experiment: HEK293-Blue-mTLR7 cell assay (SEAP reporter); type: cell-based; conditions: HEK293-Blue-mTLR7 cells, 20 hours incubation; read-out: EC50 of murine TLR7 activation
Method: FIG. 1: Example 1-A activates murine TLR7 in a HEK-Blue-mTLR assay. The cells were incubated with Example 1-A and a positive control GS-9620 at indicated concentrations for 20 hours. The activation of murine TLR7 was measured using a Quanti-Blue assay.
TLR7 Agonist Example 1-A Activates Murine TLR7
The potency of the TLR7 agonist Example 1-A activating murine TLR7 was assessed using a stable HEK293-Blue-mTLR7 cell line available from InvivoGen (Cat.#: hkb-mtlr7, San Diego, Calif., USA). Similar to the HEK293-Blue-hTLR7 as described in Example 43, the HEK293-Blue-mTLR7 is designed for studying the stimulation of murine TLR7 by monitoring the activation of NF-κB. A SEAP reporter gene was placed under the control of the IFN-β minimal promoter fused to five NF-κB and AP-1-binding sites. The SEAP expression was induced by the activation of NF-κB and AP-1 upon stimulation of murine TLR7 with TLR7 ligands. SEAP expression in cell culture supernatant was determined using a QUANTI-Blue™ kit (Cat.#: rep-qb1, Invivogen, San Diego, Calif., USA), a detection medium that turns purple/blue in the presence of alkaline phosphatase, at a wavelength of 655 nm. […]

[2] = system: murine PBMC; experiment: In vitro cytokine induction in murine PBMC (multiplex assay); conditions: 2 to 10 μM, 24 hours, dose-dependent
Method: Supernatants were collected at 24 hour post treatment and cytokine levels in supernatants were assessed by a multiplex assay.
50 μL of cell culture medium was collected and analyzed with a 36 plex Procarta multiplex kit (ebioscience EPX360-26092-901, eBioscience), which measured the levels of 15 cytokine analytes, following the manufacturer's instruction.

[3] = target: human TLR7 (Homo sapiens (Human), UniProt Q9NYK1); experiment: HEK293-Blue-hTLR-7 cells assay (SEAP reporter, NF-κB activation); type: cell-based; conditions: HEK293-Blue-hTLR-7 cells, 20 hours incubation, SEAP reporter; read-out: HEK293- hTLR-7 EC50
Source text: HEK293-Blue-hTLR-7 Cells Assay: A stable HEK293-Blue-hTLR-7 cell line was purchased from InvivoGen (Cat.#: hkb-htlr7, San Diego, Calif., USA). These cells were designed for studying the stimulation of human TLR7 by monitoring the activation of NF-κB. A SEAP (secreted embryonic alkaline phosphatase) reporter gene was placed under the control of the IFN-β[…] minimal promoter fused to five NF-κB and AP-1-binding sites. The SEAP was induced by activating NF-κB and AP-1 via stimulating HEK-Blue hTLR7 cells with TLR7 ligands. Therefore the reporter expression was regulated by the NF-κB promoter upon stimulation of human TLR7 for 20 hours. The cell culture supernatant SEAP reporter activity was determined using QUANTI-Blue™ kit (Cat.#: rep-qb1, Invivogen, San Diego, Calif., USA) at a wavelength of 640 nm, a detection medium that turns purple or blue in the presence of alkaline phosphatase. […] Then 20 μL of the supernatant from each well was incubated with 180 μL Quanti-blue substrate solution at 37° C. for 2 hours and the absorbance was read at 620˜655 nm using a spectrophotometer. […] Hiroaki Hemmi et al, Nature Immunology 3, 196-200 (2002).

Sequence of human TLR7 (Q9NYK1 27-1049): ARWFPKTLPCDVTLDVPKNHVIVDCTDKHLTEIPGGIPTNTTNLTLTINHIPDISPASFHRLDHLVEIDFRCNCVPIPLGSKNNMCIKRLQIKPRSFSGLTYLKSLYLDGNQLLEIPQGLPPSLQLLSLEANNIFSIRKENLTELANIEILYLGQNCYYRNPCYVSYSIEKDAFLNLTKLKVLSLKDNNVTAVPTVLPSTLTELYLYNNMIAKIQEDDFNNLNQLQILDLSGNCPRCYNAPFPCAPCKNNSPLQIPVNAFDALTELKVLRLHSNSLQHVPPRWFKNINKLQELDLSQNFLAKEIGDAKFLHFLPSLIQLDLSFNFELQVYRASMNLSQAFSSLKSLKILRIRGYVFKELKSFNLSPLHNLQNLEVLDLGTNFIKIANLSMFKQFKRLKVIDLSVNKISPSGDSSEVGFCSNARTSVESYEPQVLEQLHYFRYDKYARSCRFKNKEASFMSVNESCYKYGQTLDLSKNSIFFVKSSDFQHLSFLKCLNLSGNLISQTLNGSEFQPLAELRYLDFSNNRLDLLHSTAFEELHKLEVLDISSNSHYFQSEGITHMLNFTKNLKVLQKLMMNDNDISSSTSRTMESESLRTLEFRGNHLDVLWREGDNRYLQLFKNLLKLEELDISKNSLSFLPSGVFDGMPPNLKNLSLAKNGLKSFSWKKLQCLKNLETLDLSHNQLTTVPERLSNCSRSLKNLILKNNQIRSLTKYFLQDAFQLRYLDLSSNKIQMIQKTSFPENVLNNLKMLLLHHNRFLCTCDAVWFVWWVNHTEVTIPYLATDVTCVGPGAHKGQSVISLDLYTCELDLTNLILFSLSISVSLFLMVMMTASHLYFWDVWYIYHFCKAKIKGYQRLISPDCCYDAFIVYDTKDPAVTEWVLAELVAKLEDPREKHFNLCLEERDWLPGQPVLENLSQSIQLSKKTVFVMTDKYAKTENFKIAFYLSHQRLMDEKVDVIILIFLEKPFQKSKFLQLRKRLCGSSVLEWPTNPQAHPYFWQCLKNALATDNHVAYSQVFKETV
Sequence of murine TLR7 (P58681 27-1050 limits assumed): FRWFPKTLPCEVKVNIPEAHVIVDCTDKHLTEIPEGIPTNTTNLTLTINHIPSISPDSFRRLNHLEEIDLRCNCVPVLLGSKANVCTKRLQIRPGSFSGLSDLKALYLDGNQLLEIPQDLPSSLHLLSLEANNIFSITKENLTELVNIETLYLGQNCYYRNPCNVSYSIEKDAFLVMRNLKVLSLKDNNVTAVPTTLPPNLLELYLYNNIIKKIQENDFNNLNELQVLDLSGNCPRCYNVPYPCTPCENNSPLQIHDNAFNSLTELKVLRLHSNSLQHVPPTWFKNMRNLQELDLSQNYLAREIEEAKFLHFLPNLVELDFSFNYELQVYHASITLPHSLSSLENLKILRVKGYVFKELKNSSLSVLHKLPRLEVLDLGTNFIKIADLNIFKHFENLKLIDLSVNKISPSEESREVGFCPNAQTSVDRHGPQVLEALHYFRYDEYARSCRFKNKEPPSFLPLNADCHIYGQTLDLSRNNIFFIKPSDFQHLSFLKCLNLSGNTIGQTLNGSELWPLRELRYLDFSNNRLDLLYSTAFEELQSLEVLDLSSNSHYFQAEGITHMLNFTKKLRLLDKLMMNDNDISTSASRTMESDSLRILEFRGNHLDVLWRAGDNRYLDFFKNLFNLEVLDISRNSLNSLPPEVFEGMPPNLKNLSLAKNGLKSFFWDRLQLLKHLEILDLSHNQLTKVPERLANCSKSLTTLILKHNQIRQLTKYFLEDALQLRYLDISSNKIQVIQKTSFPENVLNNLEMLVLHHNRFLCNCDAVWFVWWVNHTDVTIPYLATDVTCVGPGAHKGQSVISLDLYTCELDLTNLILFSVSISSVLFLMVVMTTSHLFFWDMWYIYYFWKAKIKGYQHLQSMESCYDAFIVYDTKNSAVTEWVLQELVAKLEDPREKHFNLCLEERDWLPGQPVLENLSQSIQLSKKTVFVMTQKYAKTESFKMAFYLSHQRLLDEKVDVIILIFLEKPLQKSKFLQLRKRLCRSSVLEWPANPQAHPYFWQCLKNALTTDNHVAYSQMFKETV

## CCC(O)[C@@H]1C[C@@H](O)[C@H](n2c(=O)sc3c(=O)[nH]c(N)nc32)O1 (single isomer, unassigned) [Example 1-A]
[1]
  EC50: 71.8 µM
[2]
  IFNα induction: high levels
  IL-6 induction: high levels
  IP10 induction: high levels
  TNFα induction: high levels
[3]
  EC50: 52 µM
